Test results published in publication PMC10744248, “Unsymmetrical Pd(II) Pincer Complexes with Benzothiazole and Thiocarbamate Flanking Units: Expedient Solvent-Free Synthesis and Anticancer Potential” (International Journal of Molecular Sciences, 2023).

Columns and labels:
human cell lines = assay: MTT cytotoxicity assay, cell line panel (line not specified); assay type: cell-based; settings: at a concentration as high as 60 μM
Description: (§1) To estimate the anticancer potential of palladacycles 2a,b, their ability to inhibit cell growth in different solid and blood cancer cell lines was determined using the conventional MTT assay. […] This underscores the importance of a more labile pincer-type coordination that can be achieved not only by the introduction of two different donor centers (like hard nitrogen and soft sulfur atoms) but also via elongating one of the side arms (like in the considered thiophosphoryloxy and thiocarbamate derivatives). In turn, the stability of a pincer-type framework of complex 2b, used as a representative example, in neat DMSO, DMSO–water, and DMSO–PBS mixtures for 2 days was confirmed by the results of UV-vis spectroscopic studies (for the corresponding spectra, see Figures S33–S35 in the SI).
However, in certain cases, the selectivity indices approached and even exceeded 10.0. Of particular note is the same level of cytotoxicity of both benzothiazole–thiocarbamate complexes against parental cell lines and doxorubicin-resistant clones of non-cancerous mammary epithelial cells (HBL100 and HBL100/Dox) and, more importantly, chronic myelogenous leukemia cells K562 and K562/iS9. […]

[1] = system: human embryonic kidney (HEK293) cells; assay: MTT cytotoxicity assay, HEK293; assay type: cell-based; settings: HEK293 (non-cancerous)
Description: (§2) To estimate the anticancer potential of palladacycles 2a,b, their ability to inhibit cell growth in different solid and blood cancer cell lines was determined using the conventional MTT assay.
(§3) The cytotoxicities of ligand 1b and Pd(II) pincer complexes 2a,b, V, and VI (X = O) were studied on human colorectal carcinoma (HCT116), breast cancer (MCF7), prostate adenocarcinoma (PC3), chronic myelogenous leukemia (K562 and K562/iS9), multiple plasmacytoma (AMO1), and acute lymphoblastic leukemia (H9) cell lines, as well as human embryonic kidney (HEK293) and mammary epithelial (HBL100 and HBL100/Dox) cells used as representatives of non-cancerous cell lines. All the cell lines were obtained from American Type Culture Collection (ATCC). The tested compounds were initially dissolved in DMSO. […] The detailed procedure is described in Ref. [52].

[2] = system: doxorubicin-resistant chronic myelogenous leukemia K562/iS9 cells; assay: MTT cytotoxicity assay, K562/iS9; assay type: cell-based, human
Description: as §1
(§4) However, in certain cases, the selectivity indices approached and even exceeded 10.0. Of particular note is the same level of cytotoxicity of both benzothiazole–thiocarbamate complexes against parental cell lines and doxorubicin-resistant clones of non-cancerous mammary epithelial cells (HBL100 and HBL100/Dox) and, more importantly, chronic myelogenous leukemia cells K562 and K562/iS9. The additional investigations by flow cytometry performed on K562 and K562/iS9 cancer cells treated with complex 2a using the Annexin V-FITC/PI double staining assay confirmed its ability to […] (Figure 4), increasing the populations of early (lower right quadrants) and late (upper right quadrants) apoptotic cells in both parental and resistant lines. These findings argue for the possibility of creating new promising anticancer agents based on the related cyclopalladated derivatives that could potentially evade drug resistance of cancer cells.
(§5) The cytotoxicities of ligand 1b and Pd(II) pincer complexes 2a,b, V, and VI (X = O) were studied on human colorectal carcinoma (HCT116), breast cancer (MCF7), prostate adenocarcinoma (PC3), chronic myelogenous leukemia (K562 and K562/iS9), multiple plasmacytoma (AMO1), and acute lymphoblastic leukemia (H9) cell lines, as well as human embryonic kidney (HEK293) and mammary epithelial (HBL100 and HBL100/Dox) cells used as representatives of non-cancerous cell lines. All the cell lines were obtained from American Type Culture Collection (ATCC). The tested compounds were initially dissolved in DMSO. Cisplatin (in the initial form of an infusion concentrate in natural saline solution) from a commercial source was used as a positive control. The detailed procedure is described in Ref. [52].

[3] = system: breast cancer (MCF7) cells; assay: MTT cytotoxicity assay, MCF7; assay type: cell-based, human; settings: for IC50: MCF7, MTT assay
Description: as §2, §3

[4] = system: acute lymphoblastic leukemia (H9) cells; assay: MTT cytotoxicity assay, H9; assay type: cell-based, human
Description: as §2, §3

[5] = system: prostate adenocarcinoma (PC3) cells; assay: MTT cytotoxicity assay, PC3; assay type: cell-based, human; settings: for IC50: PC3, MTT assay
Description: as §2, §3

[6] = system: mammary epithelial HBL100 cells; assay: MTT cytotoxicity assay, HBL100; assay type: cell-based, human; settings: HBL100 (non-cancerous)
Description: as §2, §3

[7] = system: multiple plasmacytoma (AMO1) cells; assay: MTT cytotoxicity assay, AMO1; assay type: cell-based, human
Description: as §2, §3

[8] = system: chronic myelogenous leukemia K562 cells; assay: MTT cytotoxicity assay, K562; assay type: cell-based, human
Description: as §2, §3

[9] = system: doxorubicin-resistant mammary epithelial HBL100/Dox cells; assay: MTT cytotoxicity assay, HBL100/Dox; assay type: cell-based, human; settings: HBL100/dox (non-cancerous, doxorubicin-resistant)
Description: as §1, §4, §5

[10] = system: human colorectal carcinoma (HCT116) cells; assay: MTT cytotoxicity assay, HCT116; assay type: cell-based; settings: for IC50: HCT116, MTT assay
Description: as §2, §3

[11] = Stability by UV-vis spectroscopy; assay type: physicochemical
Description: as §1
The UV–vis spectra were registered on a Cary50 spectrometer in quartz cells with 10 mm path length (Figures S33–S35 in the SI).
Figure S33. […]
DMSO–PBS (1:1) registered immediately after dissolution (a) , in one ( b) or two (c) days Note: a reduction in the absorbance in the case of the DMSO–PBS (1:1) solution in time is connected […]
To confirm its identity, the resulting precipitate was collected by filtration, dried in air, dissolved in neat DMSO, and immediately analyzed by UV-Vis spectroscopy (see Fig. S35). […]

behaviour in DMSO–PBS (1:1) solution in time (reduction in absorbance) ([11]; DMSO–PBS (1:1), up to 2 days)	stability of the pincer-type framework ([11]; neat DMSO, DMSO–water and DMSO–PBS mixtures (1:1), 2 days)	Compound	cytotoxicity (human cell lines)	IC50 [1] [µM]	IC50 [2] [µM]	IC50 [3] [µM]	IC50 [4] [µM]	IC50 [5] [µM]	IC50 [6] [µM]	IC50 [7] [µM]	IC50 [8] [µM]	IC50 [9] [µM]	IC50 [10] [µM]	percentage of living cells ([3]; MCF7, at a concentration of 80 μM)	percentage of living cells ([5]; PC3, at a concentration of 80 μM)	percentage of living cells ([10]; HCT116, at a concentration of 80 μM)
–	–	CCN(CC)C(=S)Oc1cccc(-c2nc3ccccc3s2)c1 [1b, O-[3-(Benzo[d]thiazol-2-yl)phenyl] Diethylthiocarbamate]	nontoxic	–	–	–	–	–	–	–	–	–	–	–	–	–
–	–	CN(C)C1=[S+][Pd-2]2([Cl])[c]3c(cccc3-c3sc4ccccc4[n+]32)O1 (centres unmarked) [2a]	–	2.5 ± 0.2	0.9 ± 0.1	3.3 ± 0.4	1.3 ± 0.1	1.1 ± 0.3	3.2 ± 0.5	0.3 ± 0.1	0.9 ± 0.2	4.4 ± 0.8	1.3 ± 0.2	–	–	–
gradual precipitation	confirmed	CCN(CC)C1=[S+][Pd-2]2([Cl])[c]3c(cccc3-c3sc4ccccc4[n+]32)O1 (centres unmarked) [2b]	–	9.5 ± 0.7	2.6 ± 0.8	13.5 ± 2.1	2.1 ± 0.9	8.5 ± 2.5	10.2 ± 3.3	4.4 ± 0.8	2.9 ± 0.4	16.3 ± 3.8	12.7 ± 1.5	–	–	–
–	–	N.N.[Cl][Pt][Cl] [Cisplatin, reference compound]	–	–	16 ± 2	–	–	–	–	–	–	23.6 ± 3.6	–	–	–	–
–	–	[Cl][Pd-2]12[S+]=P(c3ccccc3)(c3ccccc3)c3cccc([c]31)-c1sc3ccccc3[n+]12 (centres unmarked) [V, reference compound]	–	–	–	–	–	–	–	–	–	–	–	over 60%	over 60%	over 60%
–	–	[Cl][Pd-2]12[S+]=P(c3ccccc3)(c3ccccc3)Oc3cccc([c]31)-c1sc3ccccc3[n+]12 (centres unmarked) [VI (X = O), reference compound]	–	13 ± 0.5	2.5 ± 0.4	17 ± 0.5	1.7 ± 0.3	6.6 ± 0.6	9.4 ± 0.9	3.4 ± 0.5	1.9 ± 0.3	28.6 ± 3.8	10.3 ± 0.8	–	–	–
